In patent US11261152B2, “Inhibitors of the N-terminal domain of the androgen receptor” (The Regents of the University of California, priority 2017, dated 2022):
Structures can show the parent of a compound that is named as a salt.

Tests used:
[1] = target: T1, full length AR and AR splice variants (AR-V7, AR Δ567) (Homo sapiens, UniProt P10275); assay: AR degradation, protein stability experiments with cycloheximide (Western blot); assay type: cell-based
T1 construct: endogenous in cells; host or cells: LNCaP-AR (engineered to overexpress full length AR), 22Rv1 (endogenous full length AR and AR-V7), PC3 stably expressing AR Δ567
T1 sequence (P10275 1-920): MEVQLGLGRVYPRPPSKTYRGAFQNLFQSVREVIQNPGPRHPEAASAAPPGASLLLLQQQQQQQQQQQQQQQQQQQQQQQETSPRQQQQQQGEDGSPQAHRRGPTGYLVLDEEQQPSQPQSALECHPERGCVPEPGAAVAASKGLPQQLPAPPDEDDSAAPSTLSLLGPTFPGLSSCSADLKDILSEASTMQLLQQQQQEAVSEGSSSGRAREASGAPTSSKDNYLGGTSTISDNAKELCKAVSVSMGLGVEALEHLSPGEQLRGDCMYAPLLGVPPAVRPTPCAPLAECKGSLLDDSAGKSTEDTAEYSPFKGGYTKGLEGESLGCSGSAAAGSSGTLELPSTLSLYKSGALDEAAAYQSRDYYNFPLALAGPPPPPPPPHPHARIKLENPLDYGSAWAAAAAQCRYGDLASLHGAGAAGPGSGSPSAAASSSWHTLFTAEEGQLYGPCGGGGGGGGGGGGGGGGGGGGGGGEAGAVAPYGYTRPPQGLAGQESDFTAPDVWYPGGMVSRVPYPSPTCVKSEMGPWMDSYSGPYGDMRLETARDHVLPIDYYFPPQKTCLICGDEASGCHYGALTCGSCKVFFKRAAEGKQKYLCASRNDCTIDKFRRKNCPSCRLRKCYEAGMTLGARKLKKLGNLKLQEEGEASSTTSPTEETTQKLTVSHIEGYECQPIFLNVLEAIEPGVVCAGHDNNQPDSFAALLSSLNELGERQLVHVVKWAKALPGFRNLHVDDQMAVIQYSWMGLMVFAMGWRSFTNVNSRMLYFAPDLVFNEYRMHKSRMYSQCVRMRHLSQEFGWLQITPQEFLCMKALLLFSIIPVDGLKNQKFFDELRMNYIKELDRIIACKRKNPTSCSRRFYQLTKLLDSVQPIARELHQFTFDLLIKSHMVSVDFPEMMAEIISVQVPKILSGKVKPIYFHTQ
T1 sequence (P10275 1-644 isoform P10275-3): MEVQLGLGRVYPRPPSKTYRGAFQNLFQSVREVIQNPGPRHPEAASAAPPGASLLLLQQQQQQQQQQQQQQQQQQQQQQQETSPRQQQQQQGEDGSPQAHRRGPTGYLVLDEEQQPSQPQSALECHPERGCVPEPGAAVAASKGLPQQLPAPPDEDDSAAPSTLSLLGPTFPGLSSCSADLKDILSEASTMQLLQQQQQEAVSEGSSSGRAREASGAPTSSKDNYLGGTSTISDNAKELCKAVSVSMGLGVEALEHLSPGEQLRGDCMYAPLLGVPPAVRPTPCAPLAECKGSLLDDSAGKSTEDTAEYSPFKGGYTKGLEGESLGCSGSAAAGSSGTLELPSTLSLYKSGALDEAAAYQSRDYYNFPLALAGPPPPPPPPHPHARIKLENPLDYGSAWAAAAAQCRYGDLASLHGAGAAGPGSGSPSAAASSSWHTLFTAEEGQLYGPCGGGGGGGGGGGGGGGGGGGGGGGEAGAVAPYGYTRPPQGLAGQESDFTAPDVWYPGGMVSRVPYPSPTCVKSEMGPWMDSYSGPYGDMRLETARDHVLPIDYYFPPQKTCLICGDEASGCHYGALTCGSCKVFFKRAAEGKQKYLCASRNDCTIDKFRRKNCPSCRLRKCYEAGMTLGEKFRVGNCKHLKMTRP
T1 sequence (P10275 with tags, fused parts or gaps limits assumed): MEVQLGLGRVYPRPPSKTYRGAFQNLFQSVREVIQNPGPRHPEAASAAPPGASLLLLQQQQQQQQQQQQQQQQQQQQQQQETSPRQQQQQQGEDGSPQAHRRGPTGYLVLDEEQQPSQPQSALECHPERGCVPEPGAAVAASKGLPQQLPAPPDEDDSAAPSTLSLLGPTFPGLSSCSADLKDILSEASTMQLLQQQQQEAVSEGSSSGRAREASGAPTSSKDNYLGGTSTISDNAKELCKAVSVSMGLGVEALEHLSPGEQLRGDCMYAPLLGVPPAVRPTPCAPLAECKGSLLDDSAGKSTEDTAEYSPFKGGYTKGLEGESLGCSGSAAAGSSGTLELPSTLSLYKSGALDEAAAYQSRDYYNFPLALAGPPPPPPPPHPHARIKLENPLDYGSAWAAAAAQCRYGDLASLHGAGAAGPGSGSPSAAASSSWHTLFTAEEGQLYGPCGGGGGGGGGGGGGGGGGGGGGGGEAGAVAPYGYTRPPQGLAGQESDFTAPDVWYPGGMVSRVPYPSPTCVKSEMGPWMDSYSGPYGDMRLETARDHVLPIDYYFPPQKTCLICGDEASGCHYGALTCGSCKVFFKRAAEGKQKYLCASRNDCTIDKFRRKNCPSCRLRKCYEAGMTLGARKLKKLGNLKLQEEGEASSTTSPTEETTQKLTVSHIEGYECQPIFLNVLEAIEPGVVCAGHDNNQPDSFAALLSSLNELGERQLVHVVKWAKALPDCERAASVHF
Protocol: A) LNCaP-AR cells were exposed to the indicated compounds or vehicle (DMSO) in the presence of cycloheximide for the indicated times. Western blots were performed for the indicated proteins. B) Same as A but in 22Rv1 cells.

[2] = tested on: AR regulated genes (TMPRSS, NDRG), AR^FL, AR-V7; assay: Expression of AR-regulated genes (Western blot); assay type: cell-based
Protocol: 22Rv1 and CWR22 cells were exposed to JN018 at the indicated concentrations (in μM) for 24 hours before protein extraction for Western blotting.
JN018 was further evaluated to identify a mechanism for its activity in prostate cancer cell lines. It was discovered that JN018 inhibits the expression of AR regulated genes. […] In principle, decreased AR expression can be attributed to several different effects, such as gene transcription, mRNA stability, translation, or protein stability.

[3] = target: T2, AR (Homo sapiens, UniProt P10275); assay: AR binding
T2 sequence (P10275 1-920): T1 sequence (P10275 1-920)
Text: In particular, JN018 has the following properties: (1) AR TAD is its molecular target. […] (3) JN018 induces rapid degradation of the full-length AR (ARFL) and constitutively active AR splice variants (ARSV) that lack a functional LBD. […] (5) JN018 causes growth inhibition of castration resistant prostate cancer xenografts. (6) JN018 inhibits AR-driven gene expression.

[4] = tested on: AR transcriptional activity (MMTV reporter); assay: MMTV reporter assay; assay type: cell-based

Compound: C=C(CN(C)Cc1ccccc1)C(=O)/C(=C/c1ccc(Cl)cc1)c1ccccc1 [JN018, (E)-4-((Benzyl(methyl)amino)methyl)-1-(4-chlorophenyl)-2-phenylpenta-1,4-dien-3-one hydrochloride]
- IC50 for AR Degradation [1]: ~2000 nM
- degradation of AR splice variant AR Δ567 ([1]; stably introduced into PC3 cells): enhanced degradation
- full length AR and AR-V7 expression [2]: reduces both full length AR and AR-V7 expression
- expression of TMPRSS and NDRG ([2]; 22Rv1 and CWR22 cells, 24 hours): reduces expression of TMPRSS and NDRG in a dose-dependent fashion
- binding to the AR ([3]; result in words): direct, selective, high affinity covalent binding
- Kd ([3]; unit inferred): 7.3 nM
- MMTV ([4]; Table 3 grade HIGH/MED/LOW, grades not defined): HIGH
- reporter activity driven by the MMTV promoter ([4]; result in words): inhibits reporter activity
